According to US20150258127A1, “METHODS FOR PREVENTING ANTIPHOSPHOLIPID SYNDROME (APS)” (INSERM (INSTITUT NATIONAL DE LA SANTÉ ET DE LA RECHERCHE …, priority 2012, published 2015):
Like-named read-outs stand apart in the source and are kept apart here.

Legend:
[1] = test system: P-AKT (Ser^473) (mTORC2) in human micro vascular endothelial cells (HMEC); test: Western blot of P-AKT (Ser473) (mTORC2) in HMEC exposed to APA IgG; assay type: cell-based; conditions: HMEC pretreated one hour with inhibitor (PP242 0.5 μM; LY294002 20 μM), then APA IgG 5 minutes
Procedure: (§1) All experiments were performed in duplicates.
(§2) Western blots were performed as previously described^28. […] Images were acquired using Fusion FX7 system (Vilber Loumart) and analysed using Bio-1D software (Vilber Loumart).

[2] = Cyclosporine, tacrolimus and sirolimus serum levels in transplant recipients; assay type: in vivo; conditions: human, 12 months post-transplantation, mean ± SEM
Procedure: (§3) The serum creatinine level was measured using a Synchron Cx4 autoanalyzer (Beckman Coulter, Villepinte, France). The glomerular filtration rate (GFR) was evaluated by iohexol clearance at 3- and 12-months post transplant as previously described^25. Cyclosporine and tacrolimus serum levels were determined by radioimmunoas say and sirolimus serum levels by high-performance liquid chromatography^26.

[3] = test system: kidney allograft microcirculation inflammation; test: Microcirculation inflammation in kidney biopsies, Banff classification; assay type: in vivo, human; conditions: Tx aPL+ Siro+, mean ± SEM
Text: (§4) Biopsy samples and morphological analysis: Human kidney biopsies were either fixed, in alcoholic Bouin's solution (native kidneys) or in alcohol-formalin-acetic acid solution (transplant kidneys). Carotid and left anterior descending arteries from autopsy cases were fixed in formalin. All samples were then embedded in paraffin. Four-μm sections were stained with Periodic Acid Schiff (PAS), Masson's trichrome and hematoxyin and eosin (H&E). Schiff (PAS), Masson's trichrome and hematoxylin and eosin (HE). Kidney biopsies were independently examined and scored by two pathologists at Necker Hospital. Lesions related to APS-nephropathy were quantified according to the usual criteria^12. For each biopsy, the number of vessels displaying fibrous intimal hyperplasia were counted in all the fields of the section, and the data were expressed as the number of damaged vessels for the total number of vascular sections. Lesions related to allograft nephropathy were evaluated according to the Banff classification^27, which takes into account glomerular, tubular and interstitial changes. Autopsy cases were carefully examined by two pathologists at La Pitie Salpetiere Hospital. Vascular lesions, and in particular fibrous intimal hyperplasia, were searched for and characterized in all the tissues.

[4] = test system: kidney transplant recipients with antiphospholipid antibodies (Tx APA+); test: Kidney transplant recipients cohort: vascular lesions, mGFR, allograft survival; assay type: in vivo, human
Text: Briefly, the inventors studied a first group of transplant recipients with APA+ (Tx APA+, n=37) and a control group of transplants recipients without APA− (Tx APA−, n=59) engrafted during the same period. These patients were followed in the Transplant unit of Necker Hospital. All patients with functioning allograft had surveillances biopsies and measured glomerular filtration rate (mGFR) at 3- and 12-months post transplantation. Patients had similar immunosuppressive regimen consisting in steroids, purine inhibitor and calcineurine inhibitor, except for thirteen and ten patients in the Tx APA− and Tx APA+ group, respectively, that received sirolimus starting at day 0 instead of calcineurin inhibitor.
as §3
as §4, with “Four-μm sections were stained with Periodic Acid Schiff (PAS), Masson's trichrome and hematoxyin and eosin (H&E). Schiff (PAS), Masson's trichrome and hematoxylin and eosin (HE).” left out, “Autopsy cases were carefully examined by two pathologists at La Pitie Salpetiere Hospital. Vascular lesions, and in particular fibrous intimal hyperplasia, were searched for and characterized in all the tissues.” left out

[5] = test system: P-S6RP (mTORC1) in human micro vascular endothelial cells (HMEC); test: Western blot of P-S6RP (mTORC1) in HMEC exposed to APA IgG; assay type: cell-based; conditions: HMEC pretreated one hour with inhibitor (PP242 0.5 μM), then APA IgG 5 minutes
Procedure: as §1, §2

**Q.** Which “APA-induced AKT phosphorylation / activation of the AKT pathway” value [1] does the source give for `O=c1cc(N2CCOCC2)oc2c(-c3ccccc3)cccc12` [LY294002, 2-(4-Morpholinyl)-8-phenyl-4H-1-benzopyran-4-one] here?
**A.** completely prevent

**Q.** Which concentration at 12 months ([2]; Tx aPL+ Sirolimus+ (n = 10), read-out: 12-Mo Sirolimus levels) does the source give for `CO[C@H]1C[C@@H]2CC[C@@H](C)[C@@](O)(O2)C(=O)C(=O)N2CCCC[C@H]2C(=O)O[C@H]([C@H](C)C[C@@H]2CC[C@@H](O)[C@H](OC)C2)CC(=O)[C@H](C)/C=C(\C)[C@@H](O)[C@@H](OC)C(=O)[C@H](C)C[C@H](C)/C=C/C=C/C=C/1C` [sirolimus, rapamycin] here?
**A.** 18 ± 9 ng/mL

**Q.** What about the concentration at 12 months ([2]; Tx aPL− (n = 59), read-out: 12-Mo Sirolimus levels) of the same compound?
**A.** 16 ± 2 ng/mL

**Q.** What about the “C4d (C4 deposits), Banff score” value ([3]; Month 3 post-Tx) of the same compound?
**A.** 0.2 ± 0.4

**Q.** And the “g (Glomerulitis), Banff score” value ([3]; Month 3 post-Tx)?
**A.** 0.1 ± 0.4

**Q.** And the “ptc (Peritubular Capillaritis), Banff score” value ([3]; Month 3 post-Tx)?
**A.** 0.1 ± 0.4

**Q.** What about the “Banff microcirculation inflammation score” value ([3]; Month 12 post-Tx) of the same compound?
**A.** 0.1 ± 0.3

**Q.** What about the “C4d (C4 deposits), Banff score” value ([3]; Month 12 post-Tx) of the same compound?
**A.** 0.1 ± 0.3

**Q.** And the “ptc (Peritubular Capillaritis), Banff score” value ([3]; Month 12 post-Tx)?
**A.** 0.1 ± 0.3

**Q.** What about the “measured glomerular filtration rate (mGFR)” value ([4]; Tx APA+ Siro+ patients, 12 months post transplantation, 39.6±14.6 in APA+ Siro−) of the same compound?
**A.** 56 ± 10.8 mL/min

**Q.** And the death-censored allograft survival ([4]; Tx aPL+ recipients, 12% without sirolimus)?
**A.** 70%

**Q.** And the allograft survival rate ([4]; transplant recipients with antiphospholipid antibodies, 8% without sirolimus, up to 144 months post transplantation)?
**A.** 70%

**Q.** Which “APA-induced S6RP phosphorylation” value [5] does the source give for `CC(C)n1nc(-c2cc3cc(O)ccc3[nH]2)c2c(N)ncnc21` [PP242] here?
**A.** completely abolished

**Q.** For `C=CC[C@@H]1/C=C(\C)C[C@H](C)C[C@H](OC)[C@H]2O[C@@](O)(C(=O)C(=O)N3CCCC[C@H]3C(=O)O[C@H](/C(C)=C/[C@@H]3CC[C@@H](O)[C@H](OC)C3)[C@H](C)[C@@H](O)CC1=O)[C@H](C)C[C@@H]2OC` [Tacrolimus], which concentration at 12 months ([2]; Tx aPL+ Sirolimus− (n = 27), read-out: 12-Mo Tacrolimus trough levels) is on record?
**A.** 10.3 ± 5.9 ng/mL

**Q.** And the concentration at 12 months ([2]; Tx aPL− (n = 59), read-out: 12-Mo Tacrolimus trough levels)?
**A.** 10 ± 6 ng/mL
